Patent publication US20100080862A1, “COMPOSITIONS AND FOODS FOR IMPROVING LIPID METABOLISM” (Kirin Beer Kabushiki Kaisha, priority 2002, published 2010)

Tests used:
human PPARγ = assay: PPARγ agonist screening system, PPRE luciferase reporter in CV-1 cells (Example 9); assay type: cell-based; settings: for PPARγ/RXR alpha activating activity compared to that with 1 μM pioglitazone: at a concentration of 10 μm; for PPARγ/RXR alpha activating activity (relative luciferase activity): concentrations of 1, 5, 10, and 50 μM, 48 hours
Text: In order to construct a human PPARγ expression plasmid, a PPARγ ORF was cloned from the human heart cDNA library (Gibco). After the sequence was confirmed, the cloned ORF was ligated to the NheI-SalI site of the expression vector pCI neo (Promega). The sequences of primers used for the cloning were as follows: […]
Next, in order to construct a reporter plasmid, oligo DNAs having 3 copies of PPRE was constructed and inserted at the KpnI-BglII site of the firefly luciferase reporter vector pGL3-promoter vector (Promega), after which the sequences were confirmed. The sequences of oligo-DNAs containing PPRE are as follows:
CV-1 cells were transfected with the above-mentioned plasmid along with the renilla luciferase reporter vector pRL-SV40 vector for compensation (Promega) using Lipofect AMINE (Gibco). The CV-1 cells used were cultured at a concentration of 5×10^4 cells/ml in 2 ml of DMEM (Gibco) supplemented with 10% fetal calf serum (Gibco) and penicillin-streptomycin (10000 units and 1 mg/ml, respectively; Gibco) on a 12-well plate at 37° C. in an atmosphere of 5% CO2 on the day before transfection. After the transfection, cells for the positive control were cultured in the abovementioned DMEM medium containing 1 μm pioglitazone (Takeda). After cultivating for 48 hours, the cells were recovered and the lysate was prepared using a Dual-Luciferase reporter assay system (Promega) to measure firefly luciferase and renilla luciferase activity using a luminometer (Luminous CT-9000D, DIA-IATRON). Relative luciferase activity was obtained by dividing the value for firefly luciferase activity by the value for renilla luciferase activity.

[1] = molecular target: T1, fused protein of PPARγ with yeast Gal4 protein (Homo sapiens, UniProt P37231); assay: PPARγ agonist screening system consisting of a fused protein, Gal4 luciferase reporter in CV-1 cells (Example 10); assay type: cell-based; settings: humulone compounds at 1, 3, and 10 μM, 48 hours
T1 construct: 204a.a.-505a.a) was cloned; expressed in transfected cells; host or cells: CV-1 cells
T1 sequence (P37231 204-505): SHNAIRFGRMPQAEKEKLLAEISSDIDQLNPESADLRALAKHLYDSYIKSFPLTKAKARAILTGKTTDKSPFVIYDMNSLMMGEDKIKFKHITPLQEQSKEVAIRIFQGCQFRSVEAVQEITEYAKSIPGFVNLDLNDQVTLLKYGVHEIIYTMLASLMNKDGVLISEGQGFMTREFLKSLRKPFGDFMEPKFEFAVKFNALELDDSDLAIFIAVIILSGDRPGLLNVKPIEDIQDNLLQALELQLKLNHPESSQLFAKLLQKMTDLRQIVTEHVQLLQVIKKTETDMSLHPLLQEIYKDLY
Text: In order to construct a human PPARγ expression plasmid, a PPARγ ligand binding domain (LBD; 204a.a.-505a.a) was cloned from the human heart cDNA library (Gibco). After the sequence was confirmed, the cloned ORF was ligated to the BamHI-Kpn1 site of the expression vector pBind (Promega) to construct the expression vector pGR-Gal4-PPARγ which expresses a fused protein of PPARγ with yeast Gal4 protein. The sequences of primers used for the cloning are as follows: […]
Next, an N terminal sequence (1a.a-76a.a) of the human glucocorticoid receptor (GR) was ligated to the N-terminal of the Gal4 region of pBind so that the reading frame coincided with Gal4. The GR was cloned from the heart cDNA library (Gibco) using PCR. The sequences of primers used for the cloning are as follows: […]
As a reporter plasmid, firefly luciferase expression vector pG5luc (Promega) having 5 copies of the Gal4 binding site introduced into the promoter region was used. CV-1 cells were transfected with the pGR-Gal4-PPARγ and the pG5luc using Lipofect AMINE (Gibco). After the transfection, the medium was replaced with a medium (DMEN, Gibco) with addition of a test sample or control (pioglitazone), and cells were recovered after cultivation for 48 hours. After the cell recovery, cell lysate was prepared using a Dual-Luciferase reporter assay system (Promega) to measure firefly luciferase activity using a luminometer (Luminous CT-9000D, DIA-IATRON). Further, the protein concentration of the cell lysate was measured using a Dc Protein assay (BIO-RAD) to standardize the value of firefly luciferase activity for the protein concentration. The result was expressed as a relative value by setting the value of the negative control to be 1.

[2] = tested on: C57BL/6 mice fed high fat diet; assay: Oral glucose tolerance test in mice with high fat diet-induced insulin resistance (Example 15); assay type: in vivo
Procedure: C57BL/6 mice were fed the high fat diet shown in Example 8 for 12 weeks to induce insulin resistance and then orally administered with the water soluble hop extract for 10 consecutive days (100 and 330 mg/kg/day). After completion of the administration, animals were fasted for 16 hours and then subjected to an oral glucose tolerance test (OGTT). […] After completion of the administration, animals were fasted for 16 hours and then subjected to an oral glucose tolerance test (OGTT). In OGTT, after blood sampling and blood sugar measurement, 1 g/kg of aqueous glucose solution was administered (at time zero), after which blood sampling and blood sugar measurement were carried out at 15, 30, and 60 minutes and blood sugar measurement was carried out at 120 minutes. Change with time in the blood insulin level was measured using an insulin measuring kit (Morinaga Seikagaku Institute).

C57BL/6 mice (females) = assay: Improving effect of fractionated lupulone on lipid metabolism in mice (Example 14); assay type: in vivo
Procedure: Improving effect of a fractionated lupulone on lipid metabolism was evaluated using C57BL/6 mice (females). Namely, lupulone was purified from hop pellets (CAS pellets, a product of Saaz, Czech Republic). About 2.5 kg of hop pellets were extracted with 4 L of ethyl acetate 3 times and the extract was concentrated under the reduced pressure to obtain a dark green extract (329.17 g). A portion of the extract (262.7 g) was applied on a silica gel column for fractionation. Chromatography was carried out using a stepwise elution with a hexane-ethyl acetate mixed solution to obtain 15 fractions. The third fraction (41.8 g) was applied on a silica gel column for refractionation and a fraction eluted with a hexane:ethyl acetate (20:1) solution was recrystallized to obtain lupulone (1.88 g, white needle crystals, yield: about 0.094%). Further, 5-week-old C57BL/6NCrj female mice (8 per group) (Japan Charles River) were fed CE2 (Japan Clea) and water for 1 week ad libitum. Then, the animals were divided into 2 groups, i.e., a group fed AIN76A (described in Example 2) with addition of 0.2% cholesterol and 0.3% cellulose (referred to as “group C” hereinafter) and a group fed AIN76A with addition of 0.2% cholesterol and 0.3% lupulone (referred to as “group L” hereinafter). The diets were prepared and administered according to the methods described in Example 2. One week after feeding the test diets, the animals were dissected under non-fasting conditions.

[3] = purified isocohumulone 10 and 30 mg/kg/day oral, 10 days

Structure (SMILES) | PPARγ activating activity (firefly luciferase, relative to negative control) [1] | PPARγ/RXR alpha activating activity compared to that with 1 μM pioglitazone (human PPARγ) | PPARγ/RXR alpha activating activity (relative luciferase activity) (human PPARγ) | insulin resistance (blood insulin concentration upon OGTT) ([2]; oral, 10 consecutive days, water soluble extract 100 and 330 mg/kg/day, purified isocohumulone 10 and 30 mg/kg/day) | glucose tolerance (blood sugar level upon OGTT) ([2]; oral, 10 consecutive days, water soluble extract 100 and 330 mg/kg/day, purified isocohumulone 10 and 30 mg/kg/day, 1 g/kg glucose after 16 h fasting) | insulin concentration before the administration (of glucose) [2, 3] | insulin concentration thereafter (after glucose administration) [2, 3] | cholesterol content per g of liver (C57BL/6 mice (females); group L 0.3% lupulone in AIN76A + 0.2% cholesterol, one week, non-fasting) | body weight (C57BL/6 mice (females); group L 0.3% lupulone in diet) | body weight gain per calorie intake (C57BL/6 mice (females); group L 0.3% lupulone in diet)
CC(C)=CCC1=C(O)C(O)(CC=C(C)C)C(=O)C(C(=O)C(C)C)=C1O (stereo not drawn) [cohumulones, cohumulone] | activity was confirmed | almost equivalent | exhibited the activity |  |  |  |  |  |  | 
CC(C)=CCC1=C(O)[C@](O)(CC=C(C)C)C(=O)C(C(=O)CC(C)C)=C1O [humulones, humulone] | activity was confirmed | almost equivalent | exhibited the activity |  |  |  |  |  |  | 
CCC(C)C(=O)C1=C(O)C(O)(C(=O)CC=C(C)C)C(CC=C(C)C)C1=O (stereo not drawn) [isoadhumulones, isoadhumulone] |  | almost equivalent | exhibited the activity |  |  |  |  |  |  | 
CC(C)=CCC1=C(O)C(CC=C(C)C)(CC=C(C)C)C(=O)C(C(=O)CC(C)C)=C1O [lupulone] |  |  |  |  |  |  |  | significant decrease | significant decrease | significantly reduced

Second part, led by results:

PPARγ activating activity (firefly luciferase, relative to negative control) [1] | Structure (SMILES) | PPARγ/RXR alpha activating activity compared to that with 1 μM pioglitazone (human PPARγ) | PPARγ/RXR alpha activating activity (relative luciferase activity) (human PPARγ) | insulin resistance (blood insulin concentration upon OGTT) ([2]; oral, 10 consecutive days, water soluble extract 100 and 330 mg/kg/day, purified isocohumulone 10 and 30 mg/kg/day) | glucose tolerance (blood sugar level upon OGTT) ([2]; oral, 10 consecutive days, water soluble extract 100 and 330 mg/kg/day, purified isocohumulone 10 and 30 mg/kg/day, 1 g/kg glucose after 16 h fasting) | insulin concentration before the administration (of glucose) [2, 3] | insulin concentration thereafter (after glucose administration) [2, 3] | cholesterol content per g of liver (C57BL/6 mice (females); group L 0.3% lupulone in AIN76A + 0.2% cholesterol, one week, non-fasting) | body weight (C57BL/6 mice (females); group L 0.3% lupulone in diet) | body weight gain per calorie intake (C57BL/6 mice (females); group L 0.3% lupulone in diet)
activity was confirmed | CC(C)=CCC(=O)C1(O)C(O)=C(C(=O)C(C)C)C(=O)C1CC=C(C)C (stereo not drawn) [isocohumulones, isocohumulone] | almost equivalent | exhibited the activity | amelioration | Amelioration | significantly decreased | tended to keep decreasing |  |  | 
activity was confirmed | CC(C)=CCC(=O)C1(O)C(O)=C(C(=O)CC(C)C)C(=O)C1CC=C(C)C (stereo not drawn) [isohumulones, isohumulone] | almost equivalent | exhibited the activity |  |  |  |  |  |  | 
